# Test results: patent US4880789A, “2'-Substituted-4-deoxy-thiazolo(5,4-c)-rifamycin SV derivatives” (Gruppo Lepetit S.P.A., priority 1985, dated 1989)
# Read-outs that look alike come from different tables or passages of the source.
# Tests used:
# [1] = system: Streptococcus pyogenes C203; assay: MIC, two-fold dilution microtiter, S. pyogenes C203; format: cell-based; settings: Todd-Hewitt broth, 18-24 h, 37° C
# Method: (§1) The minimum inhibitory concentration (MIC) of representative compounds of the invention was determined using two-fold dilution method in microtiter system. The media used were: Todd-Hewitt broth (Difco) for steptococci; Iso-Sensitest broth (Oxoid) for staphylococci and gram-negative bacteria. The final inoculum was about 10^4 cfμ/ml. […] For M. tuberculosis H37 RV the inoculum consisted of 0.5-1% of a 7-9 day culture in Dubos medium. The tests were carried out in Kirschner medium supplemented with 10% horse serum. Observations were made after 7-days incubation at 37° C.
# S. pneumoniae UC 41 = assay: MIC, two-fold dilution microtiter, S. pneumoniae UC 41; format: cell-based; settings: 18-24 h, 37° C
# [2] = system: Pseudomonas aeruginosa ATCC 10145; assay: MIC, two-fold dilution microtiter, P. aeruginosa ATCC 10145; format: cell-based; settings: P. aeruginosa ATCC 10145, Iso-Sensitest broth, 18-24 h, 37° C
# S. aureus TOUR L 165 [3] = assay: MIC, two-fold dilution microtiter, S. aureus TOUR L 165; format: cell-based, Staphylococcus aureus
# S. aureus tour L 165 [4] = assay: experimental septicemia in mice (S. aureus); format: in vivo; settings: Staphylococcus aureus, once daily for three days, survival on 10th day
# Method: The antimicrobial activity of the compounds of the invention is also confirmed in "in vivo" tests. The animals (groups of five mice) were infected by intraperitoneal injection of 16-hour broth culture of S. aureus tour L 165. Inocula were adjusted so that untreated animals died of septicemia within 48 hours. Animals were treated once daily for three days starting immediately after infection. On the 10th day the value for the ED50 in mg/kg/day was calculated by the method of […]-KARBER (Finney, D. J., Statistical method in biological assay, page 524. C. Griffin Ltd., London, 1952), on the basis of the percentage of surviving animals at each dose.
# [5] = system: Proteus vulgaris XI9H ATCC 881; assay: MIC, two-fold dilution microtiter, P. vulgaris; format: cell-based; settings: P. vulgaris XI9H ATCC 881, Iso-Sensitest broth, 18-24 h, 37° C
# [6] = system: Escherichia coli SKF 12140; assay: MIC, two-fold dilution microtiter, E. coli SKF 12140; format: cell-based; settings: 18-24 h, 37° C
# S. faecalis ATCC 7080 = assay: MIC, two-fold dilution microtiter, S. faecalis ATCC 7080; format: cell-based; settings: 37° C
# S. aureus TOUR L 1282 = assay: MIC, two-fold dilution microtiter, rifampicin resistant S. aureus TOUR L 1282; format: cell-based; settings: Staphylococcus aureus, TOURL1282, rifampicin resistant strain
# [7] = system: Mycobacterium tuberculosis H37RV ATCC 9360; assay: MIC, M. tuberculosis H37RV, Kirschner medium; format: cell-based; settings: 10% horse serum, 7 days, 37° C
# Method: as §1
# [8] = system: Staphylococcus aureus ATCC 6538; assay: MIC, two-fold dilution microtiter, S. aureus ATCC 6538; format: cell-based; settings: S. aureus ATCC 6538, Iso-Sensitest broth, 18-24 h, 37° C
# [9] = system: Klebsiella pneumoniae ISM; assay: MIC, two-fold dilution microtiter, K. pneumoniae ISM; format: cell-based
# [10] = Streptococcus pyogenes, read-out: MIC
# [11] = Streptococcus pneumoniae, UC41, Todd-Hewitt broth, read-out: MIC
# [12] = Pseudomonas aeruginosa, ATCC10145, read-out: MIC
# [13] = Staphylococcus aureus, TOURL165, S. aureus TOUR L 165, Iso-Sensitest broth, 18-24 h, 37° C, read-out: MIC
# [14] = Staphylococcus aureus, TOURL165, S. aureus TOUR L 165, supplemented with 30% bovine serum, read-out: MIC
# [15] = Proteus vulgaris, ATCC881, read-out: MIC
# [16] = Escherichia coli, SKF12140, Iso-Sensitest broth, read-out: MIC
# [17] = Enterococcus faecalis, ATCC7080, 18-24 h, read-out: MIC
# [18] = Mycobacterium tuberculosis, 168 h, read-out: MIC
# [19] = Staphylococcus aureus, ATCC6538, read-out: MIC
# [20] = Klebsiella pneumoniae, K. pneumoniae ISM, Iso-Sensitest broth, 18-24 h, 37° C, read-out: MIC
Compound,"MIC [1, 10] [µg/mL]",MIC (S. pneumoniae UC 41; [11]) [µg/mL],"MIC [2, 12] [µg/mL]",MIC (S. aureus TOUR L 165 [3]; [13]) [µg/mL],MIC (S. aureus TOUR L 165 [3]; [14]) [µg/mL],"ED50 (S. aureus tour L 165 [4]; TOURL165, 240 h, sc) [mg/kg]","ED50 (S. aureus tour L 165 [4]; TOURL165, po, 240 h, os) [mg/kg]","MIC [5, 15] [µg/mL]","MIC [6, 16] [µg/mL]",MIC (S. faecalis ATCC 7080; [17]) [µg/mL],MIC (S. aureus TOUR L 1282) [µg/mL],"MIC [7, 18] [µg/mL]","MIC [8, 19] [µg/mL]","MIC [9, 20] [µg/mL]",further results
"COC1C=COC2(C)Oc3c(C)c(O)c4c(O)c(c5sc(N6CCCCC6)nc5c4c3C2=O)NC(=O)C(C)=CC=CC(C)C(O)C(C)C(O)C(C)C(OC(C)=O)C1C (stereo not drawn) [Example 2, 2'-(1""-Piperidinyl) rifamycin P]",0.05,0.05,6.25,0.006,0.2,0.16,0.63,6.25,12.5,1.6,> 100,0.2,0.003,25,
"CCOC(=O)N1CCN(c2nc3c(s2)c2c(O)c4c(O)c(C)c5c(c43)C(=O)C(C)(OC=CC(OC)C(C)C(OC(C)=O)C(C)C(O)C(C)C(O)C(C)C=CC=C(C)C(=O)N2)O5)CC1 (stereo not drawn) [Example 1e, 2'(4""-ethoxycarbonyl-1""-piperazinyl) rifamycin P]",0.064,0.064,32,0.064,0.064,,,16,16,4,128,2,0.032,32,
"COC1C=COC2(C)Oc3c(C)c(O)c4c(O)c(c5sc(N6CCN(c7ccccc7)CC6)nc5c4c3C2=O)NC(=O)C(C)=CC=CC(C)C(O)C(C)C(O)C(C)C(OC(C)=O)C1C (stereo not drawn) [Example 1c, 2'(4""-phenyl-1""-piperazinyl) rifamycin P]",0.032,0.004,8,0.008,0.016,0.63,2.5,16,4,1,> 128,1,0.004,,MIC ([9]; Klebsiella pneumoniae): > 128 µg/mL
"COC1C=COC2(C)Oc3c(C)c(O)c4c(O)c(c5sc(N6CCN(Cc7ccccc7)CC6)nc5c4c3C2=O)NC(=O)C(C)=CC=CC(C)C(O)C(C)C(O)C(C)C(OC(C)=O)C1C (stereo not drawn) [Example 1d, 2'(4""-phenylmethyl-1""-piperazinyl) rifamycin P]",0.064,0.064,16,0.008,0.016,,,32,32,1,> 128,0.125,0.004,64,
"COC1C=COC2(C)Oc3c(C)c(O)c4c(O)c(c5sc(N6CCCC6)nc5c4c3C2=O)NC(=O)C(C)=CC=CC(C)C(O)C(C)C(O)C(C)C(OC(C)=O)C1C (stereo not drawn) [Example 1a, 2'-(1""-PyrrolidinyL) rifamycin P]",0.008,0.032,8,0.004,0.016,,,16,16,2,> 128,2,0.016,32,
"2'(4""-phenylmethoxycarbonyl-1""-piperazinyl) rifamycin P [Example 1f]",,,,,,,,,,,,,,,"MIC [1]: 0.125 µg/mL; MIC (S. pneumoniae UC 41; Todd-Hewitt broth): 0.064 µg/mL; MIC [2]: 32 µg/mL; MIC (S. aureus TOUR L 165 [3]; S. aureus TOUR L 165, Iso-Sensitest broth, 18-24 h, 37° C): 0.064 µg/mL; MIC (S. aureus TOUR L 165 [3]; S. aureus TOUR L 165, supplemented with 30% bovine serum): 0.064 µg/mL; MIC [5]: 64 µg/mL; MIC ([6]; Iso-Sensitest broth): > 128 µg/mL; MIC (S. faecalis ATCC 7080; 18-24 h): 2 µg/mL; MIC [7]: 0.5 µg/mL; MIC [8]: 0.064 µg/mL; MIC ([9]; K. pneumoniae ISM, Iso-Sensitest broth, 18-24 h, 37° C): > 128 µg/mL"
